In ChEMBL document CHEMBL6092212, “Discovery of novel substituted (Z)-N'-hydroxy-3-(3-phenylureido)benzimidamide derivatives as multifunctional molecules targeting pathological hallmarks of Alzheimer's disease” (Eur J Med Chem, 2024):
Activity calls are given as the source filed them. The calls are words filed in the database; no cut-off is given here.

Legend:
[1] = system: HMC3; assay: Antiinflammatory activity against LPS/ATP-induced human HMC3 cells assessed as reduction in NLRP3 level at 12.5 uM by Western blot analysis; assay type: functional, cell-based
[2] = system: Mus musculus; assay: Neuroprotective activity against scopolamine-induced cognitive deficit Swiss albino mouse model assessed as increase in TRKB mRNA level at 10 mg/kg, ip measured after 14 days by RT-PCR analysis; assay type: functional, organism-based; conditions: time 14.0 day
[3] = system: Mus musculus; assay: Neuroprotective activity against scopolamine-induced cognitive deficit Swiss albino mouse model assessed as increase in BDNF mRNA level at 10 mg/kg, ip measured after 14 days by RT-PCR analysis; assay type: functional, organism-based; conditions: time 14.0 day
[4] = target: T1, Acetylcholinesterase (Homo sapiens, UniProt P22303); assay: Inhibition of human AChE using ATCI as substrate preincubated for 30 mins followed by substrate addition measured after 30 mins by Ellman's method
T1 sequence (P22303 whole entry): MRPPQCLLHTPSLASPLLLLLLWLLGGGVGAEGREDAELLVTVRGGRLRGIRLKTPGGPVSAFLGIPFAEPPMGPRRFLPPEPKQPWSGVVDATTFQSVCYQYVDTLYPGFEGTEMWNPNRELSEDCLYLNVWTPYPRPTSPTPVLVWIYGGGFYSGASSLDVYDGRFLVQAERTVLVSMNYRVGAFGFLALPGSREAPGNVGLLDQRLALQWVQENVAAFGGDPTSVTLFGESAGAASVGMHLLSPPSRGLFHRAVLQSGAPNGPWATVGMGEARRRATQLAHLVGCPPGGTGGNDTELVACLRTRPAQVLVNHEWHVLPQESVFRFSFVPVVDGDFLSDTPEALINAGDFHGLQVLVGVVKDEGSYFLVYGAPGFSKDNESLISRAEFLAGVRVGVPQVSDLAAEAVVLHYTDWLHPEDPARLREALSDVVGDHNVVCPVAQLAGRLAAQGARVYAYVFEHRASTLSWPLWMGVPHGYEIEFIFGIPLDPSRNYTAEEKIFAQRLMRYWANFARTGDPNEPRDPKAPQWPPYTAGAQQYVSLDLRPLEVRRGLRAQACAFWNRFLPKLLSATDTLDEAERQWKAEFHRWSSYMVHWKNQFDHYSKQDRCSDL

[5] = system: HMC3; assay: Antiinflammatory activity against LPS/ATP-induced human HMC3 cells assessed as reduction in IL-18 level at 12.5 uM by Western blot analysis; assay type: functional, cell-based
[6] = system: Mus musculus; assay: Neuroprotective activity against scopolamine-induced cognitive deficit Swiss albino mouse model assessed as increase in Nr4a2 mRNA level at 10 mg/kg, ip measured after 14 days by RT-PCR analysis; assay type: functional, organism-based; conditions: time 14.0 day
[7] = system: HMC3; assay: Antiinflammatory activity against LPS/ATP-induced human HMC3 cells assessed as reduction in nuclear translocation of NF-kappaB at 12.5 uM by immunocytochemistry based analysis; assay type: functional, cell-based
[8] = Antioxidant activity assessed as inhibition of DPPH radical scavenging activity incubated for 30 mins by absorbance based analysis; assay type: functional
[9] = target: Amyloid-beta precursor protein (Homo sapiens) (UniProt P05067); assay: Inhibition of self-mediated Amyloid beta (1 to 42)(unknown origin) aggregation at 3.125 uM incubated for 3 days by ThT assay; conditions: time 3.0 day
Sequence of Amyloid-beta precursor protein (Homo sapiens) (P05067 whole entry): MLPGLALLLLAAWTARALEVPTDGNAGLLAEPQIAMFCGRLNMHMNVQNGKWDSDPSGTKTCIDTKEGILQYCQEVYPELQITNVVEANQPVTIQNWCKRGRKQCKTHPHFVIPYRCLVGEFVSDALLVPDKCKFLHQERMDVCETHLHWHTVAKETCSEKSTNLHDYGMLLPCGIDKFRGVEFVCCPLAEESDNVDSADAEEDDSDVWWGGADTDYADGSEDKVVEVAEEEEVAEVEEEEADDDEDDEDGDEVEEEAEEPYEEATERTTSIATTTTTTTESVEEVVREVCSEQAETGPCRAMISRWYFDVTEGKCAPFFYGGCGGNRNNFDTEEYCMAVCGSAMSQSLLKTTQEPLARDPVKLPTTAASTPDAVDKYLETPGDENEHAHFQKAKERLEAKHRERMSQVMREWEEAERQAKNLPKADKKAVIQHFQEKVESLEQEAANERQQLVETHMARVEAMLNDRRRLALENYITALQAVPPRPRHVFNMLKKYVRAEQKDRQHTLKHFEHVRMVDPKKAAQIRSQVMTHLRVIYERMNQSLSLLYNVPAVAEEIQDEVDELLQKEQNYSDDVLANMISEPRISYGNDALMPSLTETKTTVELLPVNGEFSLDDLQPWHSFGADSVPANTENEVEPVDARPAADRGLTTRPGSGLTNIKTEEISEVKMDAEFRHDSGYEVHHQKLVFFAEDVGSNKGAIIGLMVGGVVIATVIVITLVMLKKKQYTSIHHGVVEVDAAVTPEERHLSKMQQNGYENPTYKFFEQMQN

[10] = system: HMC3; assay: Antiinflammatory activity against LPS/ATP-induced human HMC3 cells assessed as decrease in Iba-1 level at 12.5 uM by Western blot analysis; assay type: functional, cell-based
[11] = system: Mus musculus; assay: Protection against scopolamine-associated dementia in Swiss albino mouse model assessed as increase in latency period at 10 mg/kg, ip measured after 14 days by Passive avoidance task method; assay type: functional, organism-based; conditions: time 14.0 day
[12] = system: HMC3; assay: Inhibition of mitochondrial impairment in LPS/ATP-induced human HMC3 cells at 12.5 uM incubated for 24 hrs by Rhodamine 123/JC-1 staining based analysis; assay type: functional, cell-based
[13] = target: Cholinesterase (Equus caballus, UniProt P81908); assay: Inhibition of equine BChE using BTCI as substrate preincubated for 30 mins followed by substrate addition measured after 30 mins by Ellman's method
Sequence of Cholinesterase (Equus caballus, UniProt P81908) (P81908 whole entry): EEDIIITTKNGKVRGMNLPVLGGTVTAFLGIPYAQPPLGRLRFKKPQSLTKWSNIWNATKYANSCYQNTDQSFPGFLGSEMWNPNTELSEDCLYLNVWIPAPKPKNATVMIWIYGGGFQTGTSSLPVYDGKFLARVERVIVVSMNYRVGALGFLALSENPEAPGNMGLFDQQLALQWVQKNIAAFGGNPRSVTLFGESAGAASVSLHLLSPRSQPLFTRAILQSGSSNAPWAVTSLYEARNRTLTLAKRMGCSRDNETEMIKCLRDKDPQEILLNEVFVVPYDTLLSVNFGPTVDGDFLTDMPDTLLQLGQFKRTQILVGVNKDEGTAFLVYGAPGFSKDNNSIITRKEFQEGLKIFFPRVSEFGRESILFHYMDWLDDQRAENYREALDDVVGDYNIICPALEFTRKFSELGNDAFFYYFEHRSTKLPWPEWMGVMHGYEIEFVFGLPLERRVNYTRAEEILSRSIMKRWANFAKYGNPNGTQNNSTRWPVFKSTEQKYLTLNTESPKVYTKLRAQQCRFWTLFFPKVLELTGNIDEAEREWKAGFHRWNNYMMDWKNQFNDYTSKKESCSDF

[14] = Antioxidant activity assessed as DPPH radical scavenging activity at 20 to 200 uM incubated for 30 mins by absorbance based analysis relative to control; assay type: functional; conditions: dose 20-200 µM
[15] = system: PC-12; assay: Cytotoxicity against rat PC-12 cells upto 20 uM incubated for 24 hrs by MTT assay; assay type: toxicity, cell-based; conditions: pc-12, 24 h
[16] = system: Mus musculus; assay: Neuroprotective activity against scopolamine-induced cognitive deficit Swiss albino mouse model assessed as increase in PSD95 mRNA level at 10 mg/kg, ip measured after 14 days by RT-PCR analysis; assay type: functional, organism-based; conditions: time 14.0 day
[17] = system: HMC3; assay: Induction of mitochondrial membrane potential stability in LPS/ATP-induced human HMC3 cells at 12.5 uM incubated for 24 hrs by Rhodamine 123/JC-1 staining based analysis; assay type: functional, cell-based
[18] = system: HMC3; assay: Inhibition of LPS/ATP-induced cytotoxicity against human HMC3 cells at 12.5 uM incubated for 24 hrs by MTT assay; assay type: functional, cell-based
[19] = Acute toxicity in Swiss albino mouse assessed as signs of abnormal behaviour at 2000 mg/kg, po measured 14 days post-administration; assay type: organism-based; conditions: in vivo, 336 h, time 14 day
[20] = Acute toxicity in Swiss albino mouse assessed as signs of over-weight gain at 2000 mg/kg, po measured 14 days post-administration; assay type: organism-based; conditions: in vivo, 336 h, time 14 day
[21] = Acute toxicity in Swiss albino mouse assessed as animal survival at 2000 mg/kg, po measured 14 days post-administration; assay type: organism-based; conditions: in vivo, 336 h, time 14 day
[22] = system: HMC3; assay: Antiinflammatory activity against LPS/ATP-induced human HMC3 cells assessed as increase in Nrf2 level at 12.5 uM by Western blot analysis; assay type: functional, cell-based
[23] = system: Mus musculus; assay: Reversal of scopolamine-induced cognitive deficit Swiss albino mouse model assessed as increase in number of entries in target quadrant at 10 mg/kg, ip measured after 5 days by Morris water maze test; assay type: functional, organism-based; conditions: time 5.0 day
[24] = system: Mus musculus; assay: Neuroprotective activity against scopolamine-induced cognitive deficit Swiss albino mouse model assessed as increase in c-FOS mRNA level at 10 mg/kg, ip measured after 14 days by RT-PCR analysis; assay type: functional, organism-based; conditions: time 14.0 day
[25] = system: HMC3; assay: Antiinflammatory activity against LPS/ATP-induced human HMC3 cells assessed as increase in vimentin level at 12.5 uM by immunocytochemistry based analysis; assay type: functional, cell-based
[26] = Acute toxicity in Swiss albino mouse assessed as signs of convulsion at 2000 mg/kg, po measured 14 days post-administration; assay type: organism-based; conditions: in vivo, 336 h, time 14 day
[27] = system: Mus musculus; assay: Reversal of scopolamine-induced cognitive deficit Swiss albino mouse model assessed as increase in time in platform quadrant at 10 mg/kg, ip measured after 5 days by Morris water maze test; assay type: functional, organism-based; conditions: time 5.0 day
[28] = system: Mus musculus; assay: Reversal of scopolamine-induced cognitive deficit Swiss albino mouse model assessed as reduction in distance traveled to reach platform at 10 mg/kg, ip measured after 5 days by Morris water maze test; assay type: functional, organism-based; conditions: time 5.0 day
[29] = system: HMC3; assay: Inhibition of ROS production in LPS/ATP-induced human HMC3 cells at 12.5 uM incubated for 24 hrs by MitoSOX Red FM staining based analysis; assay type: functional, cell-based
[30] = system: HMC3; assay: Antiinflammatory activity against LPS/ATP-induced human HMC3 cells assessed as reduction in NF-kappaB level at 12.5 uM by immunocytochemistry based analysis; assay type: functional, cell-based
[31] = target: T1, Acetylcholinesterase; assay: Mixed inhibition of human AChE using ATCI as substrate at 0.1 to 5 uM preincubated for 30 mins followed by substrate addition by Ellman's method; conditions: dose 0.1-5 µM
[32] = target: Microtubule-associated protein tau (Homo sapiens) (UniProt P10636); assay: Inhibition of Tau (unknown origin) aggregation at 1.125 uM incubated for 3 days by ThT assay; conditions: time 3.0 day
Sequence of Microtubule-associated protein tau (Homo sapiens) (P10636 whole entry): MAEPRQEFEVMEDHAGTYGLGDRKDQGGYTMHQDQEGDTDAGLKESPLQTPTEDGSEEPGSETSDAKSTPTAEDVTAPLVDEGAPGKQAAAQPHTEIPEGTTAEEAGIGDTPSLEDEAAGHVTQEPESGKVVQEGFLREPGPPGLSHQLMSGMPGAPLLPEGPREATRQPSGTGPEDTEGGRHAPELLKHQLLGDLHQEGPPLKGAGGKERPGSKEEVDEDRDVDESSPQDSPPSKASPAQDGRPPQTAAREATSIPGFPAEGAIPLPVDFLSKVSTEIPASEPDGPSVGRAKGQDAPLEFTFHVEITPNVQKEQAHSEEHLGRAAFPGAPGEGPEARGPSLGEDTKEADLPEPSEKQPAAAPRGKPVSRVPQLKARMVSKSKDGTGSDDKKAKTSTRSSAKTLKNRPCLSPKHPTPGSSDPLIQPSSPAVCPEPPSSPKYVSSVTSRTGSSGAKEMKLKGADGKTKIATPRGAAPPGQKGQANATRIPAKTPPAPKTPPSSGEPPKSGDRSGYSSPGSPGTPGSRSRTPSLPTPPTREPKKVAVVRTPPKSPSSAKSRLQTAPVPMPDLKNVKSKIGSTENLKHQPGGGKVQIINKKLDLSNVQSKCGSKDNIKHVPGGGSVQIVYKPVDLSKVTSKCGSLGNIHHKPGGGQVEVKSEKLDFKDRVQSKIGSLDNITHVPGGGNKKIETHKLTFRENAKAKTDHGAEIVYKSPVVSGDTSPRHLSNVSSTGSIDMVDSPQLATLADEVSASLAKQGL

[33] = target: T2, Cholinesterase (Homo sapiens, UniProt P06276); assay: Inhibition of human BChE using BTCI as substrate preincubated for 30 mins followed by substrate addition measured after 30 mins by Ellman's method
T2 sequence (P06276 whole entry): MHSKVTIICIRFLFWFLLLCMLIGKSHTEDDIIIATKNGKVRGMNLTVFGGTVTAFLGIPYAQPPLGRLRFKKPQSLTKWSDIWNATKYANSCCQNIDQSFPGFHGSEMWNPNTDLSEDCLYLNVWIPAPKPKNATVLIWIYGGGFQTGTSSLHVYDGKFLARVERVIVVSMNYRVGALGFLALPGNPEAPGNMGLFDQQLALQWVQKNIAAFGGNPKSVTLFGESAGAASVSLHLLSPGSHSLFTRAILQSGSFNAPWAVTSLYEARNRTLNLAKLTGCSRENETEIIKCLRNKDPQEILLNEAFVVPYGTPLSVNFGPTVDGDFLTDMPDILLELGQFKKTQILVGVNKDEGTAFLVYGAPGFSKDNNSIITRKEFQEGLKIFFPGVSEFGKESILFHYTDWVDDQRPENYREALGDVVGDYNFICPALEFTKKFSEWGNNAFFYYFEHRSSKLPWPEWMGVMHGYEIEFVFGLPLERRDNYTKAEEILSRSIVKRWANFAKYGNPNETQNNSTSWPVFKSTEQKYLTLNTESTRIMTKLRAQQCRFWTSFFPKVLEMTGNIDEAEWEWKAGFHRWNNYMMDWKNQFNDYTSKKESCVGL

[34] = system: HMC3; assay: Antiinflammatory activity against LPS/ATP-induced human HMC3 cells assessed as reduction in NLRP3 level at 12.5 uM by immunocytochemistry based analysis; assay type: functional, cell-based
[35] = system: Mus musculus; assay: Neuroprotective activity against scopolamine-induced cognitive deficit Swiss albino mouse model assessed as increase in CREB1 mRNA level at 10 mg/kg, ip measured after 14 days by RT-PCR analysis; assay type: functional, organism-based; conditions: time 14.0 day
[36] = system: HMC3; assay: Antiinflammatory activity against LPS/ATP-induced human HMC3 cells assessed as reduction in IL-1beta level at 12.5 uM by Western blot analysis; assay type: functional, cell-based
[37] = target: Cholinesterase (Equus caballus) (UniProt P81908); assay: Competitive inhibition of equine BChE using BTCI as substrate at 1 to 10 uM preincubated for 30 mins followed by substrate addition by Ellman's method; conditions: dose 1-10 µM
Sequence of Cholinesterase (Equus caballus) (P81908 whole entry): as the sequence (P81908 whole entry) above

[38] = Metal chelating activity assessed as compound-Fe3+ complex formation at 600 uM incubated for 24 hrs by UV spectrophotometry
[39] = system: Mus musculus; assay: Neuroprotective activity against scopolamine-induced cognitive deficit Swiss albino mouse model assessed as increase in GAP43 mRNA level at 10 mg/kg, ip measured after 14 days by RT-PCR analysis; assay type: functional, organism-based; conditions: time 14.0 day
[40] = system: HMC3; assay: Antiinflammatory activity against LPS/ATP-induced human HMC3 cells assessed as reduction in caspase-1 level at 12.5 uM by Western blot analysis; assay type: functional, cell-based
[41] = system: Mus musculus; assay: Reversal of scopolamine-induced cognitive deficit Swiss albino mouse model assessed as decrease in escape latency at 10 mg/kg, ip measured for 5 days by Morris water maze test; assay type: functional, organism-based; conditions: time 5.0 day
[42] = system: Mus musculus; assay: Neuroprotective activity against scopolamine-induced cognitive deficit Swiss albino mouse model assessed as increase in PKA mRNA level at 10 mg/kg, ip measured after 14 days by RT-PCR analysis; assay type: functional, organism-based; conditions: time 14.0 day
[43] = Acute toxicity in Swiss albino mouse assessed as signs of tremor at 2000 mg/kg, po measured 14 days post-administration; assay type: organism-based; conditions: in vivo, 336 h, time 14 day
[44] = Acute toxicity in Swiss albino mouse assessed as signs of diarrhea at 2000 mg/kg, po measured 14 days post-administration; assay type: organism-based; conditions: in vivo, 336 h, time 14 day
[45] = Permeability of compound in PBS at pH 7.4 at 500 uM by PAMPA; assay type: ADME; conditions: read-out: permeability
[46] = Induction of NO release upto 100 uM incubated for 5 to 10 mins by Griess assay; assay type: functional; conditions: time 5-10 min
[47] = system: Mus musculus; assay: Reversal of scopolamine-induced cognitive deficit Swiss albino mouse model assessed as increase in time in platform quadrant at 1.5 mg/kg, ip measured after 5 days by Morris water maze test; assay type: functional, organism-based; conditions: time 5.0 day
[48] = system: Mus musculus; assay: Protection against scopolamine-associated dementia in Swiss albino mouse model assessed as increase in latency period at 1.5 mg/kg, ip measured after 14 days by Passive avoidance task method; assay type: functional, organism-based; conditions: time 14.0 day
[49] = system: Mus musculus; assay: Neuroprotective activity against scopolamine-induced cognitive deficit Swiss albino mouse model assessed as increase in TRKB mRNA level at 1.5 mg/kg, ip measured after 14 days by RT-PCR analysis; assay type: functional, organism-based; conditions: time 14.0 day
[50] = system: Mus musculus; assay: Reversal of scopolamine-induced cognitive deficit Swiss albino mouse model assessed as decrease in escape latency at 1.5 mg/kg, ip measured for 5 days by Morris water maze test; assay type: functional, organism-based; conditions: time 5.0 day
[51] = system: Mus musculus; assay: Neuroprotective activity against scopolamine-induced cognitive deficit Swiss albino mouse model assessed as increase in BDNF mRNA level at 1.5 mg/kg, ip measured after 14 days by RT-PCR analysis; assay type: functional, organism-based; conditions: time 14.0 day
[52] = target: T1, Acetylcholinesterase; assay: Inhibition of AChE (unknown origin)
[53] = target: T2, Cholinesterase; assay: Inhibition of BChE (unknown origin)

N/C(=N\O)c1cccc(NC(=O)Nc2cccc(F)c2)c1
Activity [1]: Active
Activity [2]: Active
Activity [3]: Active
IC50 [4]: 1720 nM
Activity [5]: Active
Activity [6]: Active
Activity [7]: Active
IC50 [8]: 16100 nM
inhibition [9]: Active
Activity [10]: Active
Activity [11]: Active
inhibition [12]: Active
IC50 [13]: 6690 nM
Activity [14]: 46.1%
Activity [15]: Non-toxic
Activity [16]: Active
Activity [17]: Active
inhibition [18]: Active
Activity [19]: Non-toxic
Activity [20]: Non-toxic
Activity [21]: Non-toxic
Activity [22]: Active
Activity [23]: Active
Activity [24]: Active
Activity [25]: Active
Activity [26]: Non-toxic
Activity [27]: Active
Activity [28]: Active
inhibition [29]: Active
Activity [30]: Active
inhibition [31]: Active
inhibition [32]: Active
IC50 [33]: 5210 nM
Activity [34]: Active
Activity [35]: Active
Activity [36]: Active
inhibition [37]: Active
Activity [38]: inactive
Activity [39]: Active
Activity [40]: Active
Activity [41]: Active
Activity [42]: Active
Activity [43]: Non-toxic
Activity [44]: Non-toxic
Papp at 500 µM [45]: 10.7 ×10⁻⁶ cm/s
Activity [46]: inactive

COc1ccc2[nH]cc(CCNC(=O)Nc3cccc(/C(N)=N/O)c3)c2c1
Activity [1]: Active
Activity [2]: Active
Activity [3]: Active
IC50 [4]: 910 nM
Activity [5]: Active
Activity [6]: Active
Activity [7]: Active
IC50 [8]: 15200 nM
inhibition [9]: Active
Activity [10]: Active
Activity [11]: Active
inhibition [12]: Active
IC50 [13]: 1190 nM
Activity [14]: 47.3%
Activity [15]: Non-toxic
Activity [16]: Active
Activity [17]: Active
inhibition [18]: Active
Activity [19]: Non-toxic
Activity [20]: Non-toxic
Activity [21]: Non-toxic
Activity [22]: Active
Activity [23]: Active
Activity [24]: Active
Activity [25]: Active
Activity [26]: Non-toxic
Activity [27]: Active
Activity [28]: Active
inhibition [29]: Active
Activity [30]: Active
inhibition [31]: Active
inhibition [32]: Active
IC50 [33]: 1010 nM
Activity [34]: Active
Activity [35]: Active
Activity [36]: Active
inhibition [37]: Active
Activity [38]: inactive
Activity [39]: Active
Activity [40]: Active
Activity [41]: Active
Activity [42]: Active
Activity [43]: Non-toxic
Activity [44]: Non-toxic
Papp at 500 µM [45]: 12.3 ×10⁻⁶ cm/s
Activity [46]: inactive

CCN(C)C(=O)Oc1cccc([C@H](C)N(C)C)c1
Activity [47]: Active
Activity [14]: 4.73%
Activity [48]: Active
Activity [49]: Active
Activity [50]: Active
Activity [51]: Active

COc1cc(/C=C/C(=O)NCC(=O)NCCc2c[nH]c3ccccc23)ccc1O
IC50 [52]: 960 nM
IC50 [53]: 1230 nM
